US12497395B2, “Small molecule bromodomain inhibitors and uses therof” (ConverGene, LLC, priority 2019, dated 2025)

Key:
[1] = target: BRD4 (BD1, 2) (Homo sapiens, UniProt O60885); assay: BROMOscan competitive ligand binding assay, BRD4 (BD1, 2)
[2] = target: T1, full-length recombinant human BRD4 (Homo sapiens, UniProt O60885); assay: AlphaScreen assay, full-length BRD4 with acetylated histone H4 peptide; format: binding; details: full-length BRD4, acetylated H4 peptide (1-21) ligand
T1 construct: His-tag (N); purchased Reaction Biology RD-21-153; host or cells: Sf9 insect cells
Experimental: AlphaScreen® assay, an […], was conducted by following manufacturer's protocol (PerkinElmer, Waltham, MA) at Reaction Biology (Malvern, PA) utilizing full-length recombinant human BRD4 corresponding to amino acid position 2-1362 (NCBI Reference Sequence: NM_058243) expressed in Sf9 insect cells with an N-terminal His-tag (Reaction Biology Catalog No. RD-21-153), and histone H4 peptide (1-21) containing acetylated lysine residues at positions 5, 8, 12 and 16 as the ligand. […] H4 ligand peptide was then added and the mixture was incubated for another 30 minutes at room temperature. Streptavidin-coated donor beads and Ni acceptor beads were then added, and the mixture was incubated for additional 60 minutes. Fluorescent measurements (Ex/Em=680/520-620 nm) were taken and the data were fitted to the Hill equation with variable slopes to obtain IC50 values.

[3] = system: MV4-11 cells; assay: MV4-11 cytotoxicity assay (CellTiter-Glo); format: cell-based; details: Homo sapiens, 72 hr incubation
Experimental: Cell lines: The MV4-11 cell line were obtained from American Type Culture Collection (ATCC, Manassas, VA, USA) and cultured in RPMI 1640 (Invitrogen 11879020) culture medium supplemented with 10% fetal bovine serum and 100 units/mL Penicillin, 100 μg/mL Streptomycin and maintained in a 37° C., 5% CO2/95% humidified air incubator.
Cytotoxicity Assay: MV4-11 cells were cultured as described above, and plated in 1536-well white solid tissue culture plates using a Multidrop Combi peristaltic dispenser (ThermoFisher, Waltham, MA) at a density of 500 cells/well in 5 μL of RPMI 1640 (Invitrogen 11879020) culture medium supplemented with 10% fetal bovine serum and 100 units/mL Penicillin, 100 μg/mL Streptomycin. A 1536-well pintool dispenser outfitted with 20 nL pins (Wako Automation, San Diego, CA) was used to transfer 23 nL of compound in DMSO to the 1536-well assay plates. After 72 hr incubation at 37° C., 2.5 μL of CellTiter-Glo (Promega) was dispensed into each well using a BioRAPTR FRD dispenser (Beckman Coulter, Brea, CA). Plates were incubated at room temperature for 10 minutes, transferred to a ViewLux microplate imager (Perkin Elmer, Waltham, MA) and the ATP-coupled luminescence was measured using a 1 second exposure.

[4] = system: acute myeloid leukemia cell line Kasumi-1; assay: Kasumi-1 cell viability assay (CellTiter-Blue); format: cell-based; details: Homo sapiens, Kasumi 1; approximately 72 hours exposure, CellTiter-Blue; read-out: Kasumi-1 IC50
Experimental: Cell viability assay: Cell viability assay was conducted to obtain G150, the compound concentration resulting in 50% growth inhibition, using an acute myeloid leukemia cell line Kasumi-1 (ATCC® CRL-2724™) (ATCC, Manassas, VA). Briefly, cells were seeded on a 96-well flat-bottom cell culture plate at the density of 30,000 cells per well (MV-4-11) or 10,000 cells per well (Kasumi-1) in RPMI supplemented with 10% fetal bovine serum and L-glutamine plus penicillin and streptomycin. Cells were maintained at 37° C. with 5% CO2 for 24 hours then exposed to a given compound at either 11 or 21 concentrations ranging from 0 μM to 20 μM in a 150 μL volume in the presence of 0.2% dimethyl sulfoxide, the solvent used in serial dilution of the compound. The exposure was maintained for approximately 72 hours and the cell viability was measured using CellTiter-Blue® (Promega, Madison, WI) according to manufacturer's instruction. GI50 values were calculated using a four-parameter dose-response model in Graph Pad Prism (La Jolla, CA).

[5] = target: CBP (Homo sapiens, UniProt Q92793); assay: BROMOscan competitive ligand binding assay, CBP
Sequence of CBP (Q92793 1085-1192 limits assumed): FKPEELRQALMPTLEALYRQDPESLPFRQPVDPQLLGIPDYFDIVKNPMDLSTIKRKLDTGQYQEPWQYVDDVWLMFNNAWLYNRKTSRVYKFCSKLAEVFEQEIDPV

[6] = target: T2, P300 (Homo sapiens, UniProt Q09472); assay: BROMOscan competitive ligand binding assay, P300
T2 sequence (Q09472 1049-1156 limits assumed): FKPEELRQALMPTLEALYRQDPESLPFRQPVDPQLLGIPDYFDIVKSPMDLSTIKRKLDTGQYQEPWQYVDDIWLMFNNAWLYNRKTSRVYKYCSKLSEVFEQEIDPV

[7] = target: BRD2 (BD1) (Homo sapiens, UniProt P25440); assay: BROMOscan competitive ligand binding assay, BRD2 (BD1)
Sequence of BRD2 (BD1) (P25440 74-180 limits assumed): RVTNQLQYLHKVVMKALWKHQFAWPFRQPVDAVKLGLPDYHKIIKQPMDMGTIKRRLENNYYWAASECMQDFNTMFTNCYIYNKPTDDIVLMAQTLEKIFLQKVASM

[8] = target: BRD2 (BD1, 2) (Homo sapiens, UniProt P25440); assay: BROMOscan competitive ligand binding assay, BRD2 (BD1, 2)
Sequence of BRD2 (BD1, 2) (P25440 71-455 limits assumed): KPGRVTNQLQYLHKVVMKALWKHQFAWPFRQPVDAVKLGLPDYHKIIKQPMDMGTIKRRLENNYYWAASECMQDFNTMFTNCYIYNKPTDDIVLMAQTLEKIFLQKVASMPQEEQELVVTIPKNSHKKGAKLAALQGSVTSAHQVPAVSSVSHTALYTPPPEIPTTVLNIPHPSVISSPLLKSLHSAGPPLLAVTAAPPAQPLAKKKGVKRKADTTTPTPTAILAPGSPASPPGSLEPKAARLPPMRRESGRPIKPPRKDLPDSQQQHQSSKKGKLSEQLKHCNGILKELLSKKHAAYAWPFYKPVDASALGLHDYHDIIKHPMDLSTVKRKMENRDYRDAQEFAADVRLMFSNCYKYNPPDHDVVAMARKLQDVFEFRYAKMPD

[9] = target: BRD2 (BD2) (Homo sapiens, UniProt P25440); assay: BROMOscan competitive ligand binding assay, BRD2 (BD2)
Sequence of BRD2 (BD2) (P25440 344-453 limits assumed): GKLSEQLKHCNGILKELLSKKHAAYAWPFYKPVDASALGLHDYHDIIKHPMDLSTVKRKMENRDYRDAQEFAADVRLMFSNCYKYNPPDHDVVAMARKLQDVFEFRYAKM

[10] = target: BRD3 (BD1) (Homo sapiens, UniProt Q15059); assay: BROMOscan competitive ligand binding assay, BRD3 (BD1)
Sequence of BRD3 (BD1) (Q15059 34-140 limits assumed): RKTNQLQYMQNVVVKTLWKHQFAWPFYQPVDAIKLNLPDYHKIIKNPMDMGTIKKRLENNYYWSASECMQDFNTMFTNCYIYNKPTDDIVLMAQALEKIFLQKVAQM

[11] = target: BRD3 (BD1, 2) (Homo sapiens, UniProt Q15059); assay: BROMOscan competitive ligand binding assay, BRD3 (BD1, 2)
Sequence of BRD3 (BD1, 2) (Q15059 24-416 limits assumed): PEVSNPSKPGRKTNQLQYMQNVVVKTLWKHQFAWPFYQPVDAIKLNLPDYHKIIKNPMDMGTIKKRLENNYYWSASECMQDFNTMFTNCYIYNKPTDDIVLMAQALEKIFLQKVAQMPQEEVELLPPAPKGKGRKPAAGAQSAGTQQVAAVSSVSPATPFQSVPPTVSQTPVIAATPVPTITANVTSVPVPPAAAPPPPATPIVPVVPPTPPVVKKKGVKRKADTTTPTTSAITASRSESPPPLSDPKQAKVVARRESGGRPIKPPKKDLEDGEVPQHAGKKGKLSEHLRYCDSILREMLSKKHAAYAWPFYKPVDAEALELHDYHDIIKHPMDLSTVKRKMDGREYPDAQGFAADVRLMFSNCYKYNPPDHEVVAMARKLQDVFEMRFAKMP

[12] = target: BRD3 (BD2) (Homo sapiens, UniProt Q15059); assay: BROMOscan competitive ligand binding assay, BRD3 (BD2)
Sequence of BRD3 (BD2) (Q15059 306-415 limits assumed): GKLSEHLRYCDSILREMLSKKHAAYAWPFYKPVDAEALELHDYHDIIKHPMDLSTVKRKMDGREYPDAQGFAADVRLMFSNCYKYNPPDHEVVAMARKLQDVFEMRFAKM

[13] = target: BRD4 (BD1) (Homo sapiens, UniProt O60885); assay: BROMOscan competitive ligand binding assay, BRD4 (BD1)
[14] = target: BRD4 (BD2) (Homo sapiens, UniProt O60885); assay: BROMOscan competitive ligand binding assay, BRD4 (BD2)
[15] = target: BRDT (BD1) (Homo sapiens, UniProt Q58F21); assay: BROMOscan competitive ligand binding assay, BRDT (BD1)
[16] = target: BRDT (BD1, 2) (Homo sapiens, UniProt Q58F21); assay: BROMOscan competitive ligand binding assay, BRDT (BD1, 2)
[17] = target: BRDT (BD2) (Homo sapiens, UniProt Q58F21); assay: BROMOscan competitive ligand binding assay, BRDT (BD2)

Cn1cc(-c2ccc3nc(-c4cnn(CC(C)(C)O)c4)nc(N4CCOC[C@@H]4c4ccccc4)c3c2)c2cc[nH]c2c1=O [Cpd. 2, (S)-4-(2-(1-(2-hydroxy-2-methylpropyl)-1H-pyrazol-4-yl)-4-(3-phenylmorpholino)quinazolin-6-yl)-6-methyl-1,6-dihydro-7H-pyrrolo[2,3-c]pyridin-7-one]
< 100 nM: Kd ([1]; Table 3) | Kd ([1]; tandem bromodomains) | IC50 [2] | IC50 [3] | IC50 [4] | Kd [5] | Kd [6] | Kd [7] | Kd [8] | Kd [9] | Kd [10] | Kd [11] | Kd [12] | Kd [13] | Kd [14] | Kd [15] | Kd [16] | Kd [17]
